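Interpolation was linear, between the two tested concentrations surrounding the appropriate level; five concentrations were tested over 48 hours in 96-well plates. TGI is the concentration that stops growth completely.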
Legend:
Assay in all cases: inhibition of tumour cell growth, NCI panel, 48 h
MALME-3M melanoma = tested on: MALME-3M melanoma
SF-268 CNS = tested on: SF-268 CNS
SNB-19 CNS = tested on: SNB-19 CNS
NCI-H522 lung = tested on: NCI-H522 lung
SNB-75 CNS = tested on: SNB-75 CNS
NCI-H460 lung = tested on: NCI-H460 lung
RXF 393 renal = tested on: RXF 393 renal
SK-MEL-2 melanoma = tested on: SK-MEL-2 melanoma
NCI-H23 lung = tested on: NCI-H23 lung
CAKI-1 renal = tested on: CAKI-1 renal
IGROV1 ovarian = tested on: IGROV1 ovarian
UO-31 renal = tested on: UO-31 renal
MOLT-4 leukemia = tested on: MOLT-4 leukemia
SK-OV-3 ovarian = tested on: SK-OV-3 ovarian
A549 NSCLC = tested on: A549 NSCLC
EKVX NSCLC = tested on: EKVX NSCLC
K-562 leukemia = tested on: K-562 leukemia
UACC-62 melanoma = tested on: UACC-62 melanoma
RPMI-8226 leukemia = tested on: RPMI-8226 leukemia
OVCAR-5 ovarian = tested on: OVCAR-5 ovarian

| SMILES | TGI (MALME-3M melanoma) [µM] | TGI (SF-268 CNS) [µM] | TGI (SNB-19 CNS) [µM] | TGI (NCI-H522 lung) [µM] | TGI (SNB-75 CNS) [µM] | TGI (NCI-H460 lung) [µM] | TGI (RXF 393 renal) [µM] | TGI (SK-MEL-2 melanoma) [µM] | TGI (NCI-H23 lung) [µM] | TGI (CAKI-1 renal) [µM] | TGI (IGROV1 ovarian) [µM] | TGI (UO-31 renal) [µM] | TGI (MOLT-4 leukemia) [µM] | TGI (SK-OV-3 ovarian) [µM] | TGI (A549 NSCLC) [µM] | TGI (EKVX NSCLC) [µM] | TGI (K-562 leukemia) [µM] | TGI (UACC-62 melanoma) [µM] | TGI (RPMI-8226 leukemia) [µM] | TGI (OVCAR-5 ovarian) [µM] |
| --- | --- | --- | --- | --- | --- | --- | --- | --- | --- | --- | --- | --- | --- | --- | --- | --- | --- | --- | --- | --- |
| O=C(O)CCCCCCCCC(=O)O | > 500 | > 500 | > 79.3 | > 500 | > 79.3 | > 500 | > 500 | > 500 | > 500 | > 500 | > 500 | > 500 | > 500 | > 500 | > 500 | > 500 | > 500 | > 500 | > 500 | > 500 |
| Cc1cc(C)c(/C=C(\C(=C/c2c(C)cc(C)cc2C)[N+](=O)[O-])[N+](=O)[O-])c(C)c1 |  |  | > 100 |  | > 100 | > 100 | 90.4 | > 100 | > 100 | > 100 | > 100 | > 100 | > 100 | > 100 | > 100 | > 100 | > 100 | > 100 | 70.9 | > 100 |
| O=C1c2cccc(O)c2C(=O)c2c(O)cc(CO)cc21 | 83.6 | > 100 | > 100 | 64.6 | > 100 | > 100 | > 100 | > 100 | > 100 | > 100 |  |  | > 100 | > 100 | > 100 |  |  |  | > 100 | > 100 |
| O=S1(=O)C[C@@H](NCc2ccccc2)[C@H](NCc2ccccc2)C1 | > 100 | > 100 | > 100 | > 100 | > 100 | > 100 | > 100 | > 100 | > 100 | > 100 | > 100 | > 100 | > 100 | > 100 | > 100 | > 100 | > 100 | > 100 | > 100 | > 100 |

Source: PubChem BioAssay (NCI)
